Source: patent publication US5278045A, “Method and compositions to screen compounds for enhancement of the cholinergic, dopaminergic and serotonergic function” (Du Pont Merck Pharmaceutical Company, priority 1990, dated 1994)
Where no end group is shown, it is not given here.

system: DuP 996 binding protein; assay: Specificity of the DuP 996 binding protein (displacement of tritiated DuP 996 by pharmacological standards); set-up: species or system rat; details: not given

Row | Compound | ability to displace tritiated DuP 996 binding from the binding protein
1 | CN1[C@@H]2CC[C@H]1C[C@@H](OC(=O)C(CO)c1ccccc1)C2 (stereo partly shown) [atropine] | None of these pharmacological standards was able to displace
2 | CN1C(=O)CN=C(c2ccccc2)c2cc(Cl)ccc21 [diazepam] | None of these pharmacological standards was able to displace
3 | COc1ccc(CCN(C)CCCC(C#N)(c2ccc(OC)c(OC)c2)C(C)C)cc1OC (stereo not shown) [verapamil] | None of these pharmacological standards was able to displace
4 | CN1CCCC1c1cccnc1 (stereo not shown) [nicotine] | None of these pharmacological standards was able to displace

same assay, conditions: receptor and ion channel ligands and neuropeptides against 10 nM tritiated DuP 996

Row | Compound | ability to displace tritiated DuP 996 binding from the binding protein
5 | CN[C@H](CC(=O)O)C(=O)O [N-methyl-D-aspartic acid] | None of these pharmacological standards was able to displace
6 | veratidine | None of these pharmacological standards was able to displace
7 | C=CCN1CCC2(C)c3cc(O)ccc3CC1C2C (single isomer, unassigned; (+)) [(+)-SKF 10,047] | None of these pharmacological standards was able to displace
8 | neurokinin B | None of these pharmacological standards was able to displace
9 | CC(C)NCC(O)c1ccc(O)c(O)c1 (stereo not shown) [isoproterenol] | None of these pharmacological standards was able to displace
10 | COC(=O)[C@@H]1[C@H]2C[C@H]3c4[nH]c5ccccc5c4CCN3C[C@@H]2CC[C@@H]1O [yohimbine] | None of these pharmacological standards was able to displace
11 | NC[C@H](O)c1ccc(O)c(O)c1 [norepinephrine] | None of these pharmacological standards was able to displace
12 | NCCCC(=O)O [GABA] | None of these pharmacological standards was able to displace
13 | RPPGFSPFR [bradykinin] | None of these pharmacological standards was able to displace
14 | Cn1c(=O)c2c(ncn2C)n(C)c1=O [caffeine] | None of these pharmacological standards was able to displace
15 | NC(=O)CN1CCCC1=O [piracetam] | None of these pharmacological standards was able to displace
16 | CN(C)CCC=C1c2ccccc2CCc2ccccc21 [amitriptyline] | None of these pharmacological standards was able to displace
17 | c1ccc(C2(N3CCCCC3)CCCCC2)cc1 [phencyclidine] | None of these pharmacological standards was able to displace
18 | neurokinin A | None of these pharmacological standards was able to displace
19 | Nc1ncnc2c1ncn2[C@@H]1O[C@H](CO)[C@@H](O)[C@H]1O [adenosine] | None of these pharmacological standards was able to displace
20 | O=C1C[C@@H]2OCC=C3CN4CC[C@]56c7ccccc7N1[C@H]5[C@H]2[C@H]3C[C@H]46 [strychnine] | None of these pharmacological standards was able to displace
21 | C1CCc2nnnn2CC1 [pentylenetetrazol] | None of these pharmacological standards was able to displace
22 | O=C(CCCN1CCC(O)(c2ccc(Cl)cc2)CC1)c1ccc(F)cc1 [haloperidol] | None of these pharmacological standards was able to displace
23 | CN1CCN2c3ccccc3Cc3ccccc3C2C1 (stereo not shown) [mianserin] | None of these pharmacological standards was able to displace
24 | 3,4-aminopyridine | None of these pharmacological standards was able to displace
25 | LHRH: pharmacological standard | None of these pharmacological standards was able to displace
26 | C=CCN1CC[C@]23c4c5ccc(O)c4O[C@H]2C(=O)CC[C@@]3(O)[C@H]1C5 [naloxone] | None of these pharmacological standards was able to displace
27 | CC(N)Cc1ccccc1 (stereo not shown) [amphetamine] | None of these pharmacological standards was able to displace
28 | angiotensin III | None of these pharmacological standards was able to displace
29 | neurotensin 8-13 | None of these pharmacological standards was able to displace
30 | ACTH 1-24: pharmacological standard | None of these pharmacological standards was able to displace
31 | substance P | None of these pharmacological standards was able to displace
32 | CN/C(=N/CCSCc1nc[nH]c1C)NC#N [cimetidine] | None of these pharmacological standards was able to displace
33 | COc1ccc(CN(CCN(C)C)c2ccccn2)cc1 [pyrilamine] | None of these pharmacological standards was able to displace
34 | cholecystokinin | None of these pharmacological standards was able to displace
